Common to all, as to assay type: functional
Assay [1] concerns Staphylococcus aureus. Kind of assay: Antibacterial activity against Staphylococcus aureus assessed as bacterial growth inhibition by broth microdilution assay. In general terms: Broth dilution looks for growth in wells or tubes with falling amounts of substance.
In assay [2] the test system is Escherichia coli. Briefly: Antibacterial activity against Escherichia coli assessed as bacterial growth inhibition by broth microdilution assay.
The test system of assay [3] is Pseudomonas aeruginosa. Kind of assay: Antibacterial activity against Pseudomonas aeruginosa assessed as bacterial growth inhibition by broth microdilution assay.
The subject of assay [4] is Escherichia coli. Kind of assay: Antibacterial activity against Escherichia coli assessed as bacterial growth inhibition by two fold microdilution assay.
The subject of assay [5] is Klebsiella pneumoniae. Briefly: Antibacterial activity against Klebsiella pneumoniae assessed as bacterial growth inhibition by two fold microdilution assay.
The subject of assay [6] is Staphylococcus aureus. Briefly: Antibacterial activity against Staphylococcus aureus assessed as bacterial growth inhibition by two fold microdilution assay.
Assay [7] has as its system Staphylococcus aureus. Kind of assay: Antibacterial activity against methicillin resistant Staphylococcus aureus ATCC 33591 assessed as bacterial growth inhibition measured after 16 to 18 hrs by serial dilution method. Particulars: time 16-18 hrs.
Assay [8] relates to Enterococcus faecalis. Kind of assay: Antibacterial activity against Enterococcus faecalis assessed as bacterial growth inhibition by broth microdilution assay.
Assay [9] relates to Escherichia coli. Briefly: Antibacterial activity against fluoroquinolone Escherichia coli assessed as bacterial growth inhibition by broth microdilution assay.
The subject of assay [10] is Escherichia coli. Briefly: Antibacterial activity against Escherichia coli ATCC 8739 assessed as bacterial growth inhibition by two fold microdilution assay.
In assay [11] the test system is Staphylococcus aureus. Briefly: Antibacterial activity against Staphylococcus aureus ATCC 6538P assessed as bacterial growth inhibition by two fold microdilution assay.
The subject of assay [12] is Escherichia coli. Briefly: […] activity against Escherichia coli assessed as bacterial growth inhibition by broth dilution assay.
In assay [13] the test system is Escherichia coli. Kind of assay: Antibacterial activity against Escherichia coli ATCC 10536 assessed as bacterial growth inhibition measured after 24 to 48 hrs by agar dilution assay. Particulars: time 24-48 hrs.
Assay [14] deals with Pseudomonas aeruginosa. Kind of assay: Antibacterial activity against Pseudomonas aeruginosa ATCC 11632 assessed as bacterial growth inhibition measured after 24 to 48 hrs by agar dilution assay. Particulars: time 24-48 hrs.
Assay [15] concerns Escherichia coli. Kind of assay: Antibacterial activity against Escherichia coli assessed as bacterial growth inhibition by agar cup diffusion assay.
Assay [16] concerns Pseudomonas aeruginosa. Briefly: Antibacterial activity against Pseudomonas aeruginosa assessed as bacterial growth inhibition by agar cup diffusion assay.
The subject of assay [17] is Klebsiella pneumoniae. Kind of assay: Antibacterial activity against Klebsiella pneumoniae assessed as bacterial growth inhibition by agar cup diffusion assay.
Assay [18] deals with Staphylococcus aureus. Briefly: Antibacterial activity against Staphylococcus aureus assessed as bacterial growth inhibition by agar cup diffusion assay.
Assay [19] has as its system Staphylococcus aureus. Briefly: Potency index, ratio of ciprofloxacin MIC to test compound MIC for antimicrobial activity against Staphylococcus aureus assessed as bacterial growth inhibition by agar cup diffusion assay.
The test system of assay [20] is Escherichia coli. Briefly: Potency index, ratio of ciprofloxacin MIC to test compound MIC for antimicrobial activity against Escherichia coli assessed as bacterial growth inhibition by agar cup diffusion assay.
The test system of assay [21] is Staphylococcus aureus. Kind of assay: Antibacterial activity against Staphylococcus aureus ATCC 25923 assessed as bacterial growth inhibition measured after 18 hrs by agar dilution assay. (In general: Agar dilution tests growth on a series of plates holding different concentrations.)
Assay [22] concerns Escherichia coli. Briefly: Antibacterial activity against Escherichia coli ATCC 25922 assessed as bacterial growth inhibition measured after 18 hrs by agar dilution assay.

Values after ≈ are worked out from the molar mass of the structure shown. A value given as a limit tells only on which side of the number the result lay.

Usually MIC stands for the lowest concentration found to suppress growth. Take `CCn1cc(C(=O)O)c(=O)c2cc(F)c(N3CCN(Cn4nc(-c5ccncc5)oc4=S)CC3)cc21`: the minimum inhibitory concentration (MIC) in [1], in assay [2] and in [3] was at most 0.125 µg/mL each time.
On to `CCn1cc(C(=O)O)c(=O)c2cc(F)c(N3CCN(Cn4nc(Cn5nc(C)n(/N=C/c6ccccc6O)c5=O)n(-c5ccccc5)c4=S)CC3)cc21`, for which the values for the minimal inhibitory concentration (MIC) in [4], in assay [5] and in assay [6] were below 0.24 µg/mL, below 0.24 µg/mL and below 28 µg/mL, respectively.
For the compound `Cc1ccc(-c2ccnc(Nc3ccc4c(=O)c(C(=O)O)cn(C5CC5)c4c3)n2)cc1`, the minimum inhibitory concentration (MIC) in assay [7] worked out at 0.38 µg/mL (≈ 0.921 µM).
As to `CCCCCCOc1ccc(C2C(Cl)C(=O)N2c2cc3[nH]cc(C(=O)O)c(=O)c3cc2F)cc1` (centres undefined), the MIC in assay [1], in [2], in assay [8] and in assay [9] was 0.02 µg/mL (≈ 0.0411 µM) in each case.
As for `Cc1nn(Cc2nn(CN3CCN(c4cc5c(cc4F)c(=O)c(C(=O)O)cn5C4CC4)CC3)c(=O)n2-c2ccccc2)c(=O)n1/N=C/c1ccccc1O`, the MIC in assay [4] was below 0.24 µg/mL; in assay [5] it was below 0.24 µg/mL; in assay [6], below 28 µg/mL.
In the case of `CCn1cc(C(=O)O)c(=O)c2cc(F)c(N3CCN(Cn4nc(-c5cccs5)n(-c5ccc(OC)cc5)c4=S)CC3)cc21`, the MIC in [5], in assay [10] and in assay [11] was at most 0.125 µg/mL in each case.
In the case of `CCCc1nn(CN2CCN(c3ncc4c(=O)c(C(=O)O)cn(CC)c4n3)CC2)c(=S)n1-c1cccc(OC)c1`, in assay [12], the MIC came out at 0.98 µg/mL (≈ 1.74 µM).
With `Cc1nn(Cc2nn(CN3CCN(c4cc5c(cc4F)c(=O)c(C(=O)O)cn5C4CC4)CC3)c(=S)n2Cc2ccccc2)c(=O)n1/N=C/c1ccccc1O`, the minimal inhibitory concentration (MIC) was below 0.24 µg/mL in assay [4], below 0.24 µg/mL in [5] and below 28 µg/mL in assay [6].
As for `Cn1c(=O)c(C(=O)CNc2ccc(-c3nc4ccc(Cl)c(Cl)c4s3)cc2)c(O)c2ccccc21`, the MIC in assay [13] and in [14] was 0.5 µg/mL (≈ 0.98 µM) in each case.
For `CCn1cc(C(=O)O)c(=O)c2cc(F)c(N3CCN(Cn4nc(Cn5nc(C)n(/N=C/c6ccccc6O)c5=O)n(Cc5ccccc5)c4=S)CC3)cc21`, the values for the MIC in assay [4], in assay [5] and in assay [6] were below 0.24 µg/mL, below 0.24 µg/mL and below 28 µg/mL, respectively.
In the case of `Cc1nn(Cc2nn(CN3CCN(c4cc5c(cc4F)c(=O)c(C(=O)O)cn5C4CC4)CC3)c(=S)n2-c2ccccc2)c(=O)n1/N=C/c1ccccc1O`, the MIC in assay [4] is below 0.24 µg/mL; in assay [5] it was below 0.24 µg/mL; in assay [6], below 28 µg/mL.
Turning to `Cc1ccc(Oc2ccnc(Nc3ccc4c(=O)c(C(=O)O)cn(C5CC5)c4c3)n2)cc1C`, the minimal inhibitory concentration (MIC) in [7] was 0.38 µg/mL (≈ 0.859 µM).
As to `CCn1cc(C(=O)O)c(=O)c2cc(F)c(N3CCN(Cn4nc(-c5ccccn5)n(-c5ccc(OC)cc5)c4=S)CC3)cc21`, the MIC in assay [5], in assay [10] and in assay [11] was at most 0.125 µg/mL in each case.
Consider `CCCCc1nn(CN2CCN(c3ncc4c(=O)c(C(=O)O)cn(CC)c4n3)CC2)c(=S)n1-c1cccc(OC)c1`, for which the MIC in assay [12] was determined as 0.98 µg/mL (≈ 1.69 µM).
For the compound `CCc1nn(CN2CCN(c3ncc4c(=O)c(C(=O)O)cn(CC)c4n3)CC2)c(=S)n1-c1cccc(OC)c1`, the MIC in assay [12] came to 0.98 µg/mL (≈ 1.78 µM).
As to `C[C@@H](N)C(=O)N1CCN(c2cc3c(cc2F)c(=O)c(C(=O)N2CCOCC2)cn3C2CC2)CC1`, the minimum inhibitory concentration (MIC) in assay [2] is 0.4 µg/mL (≈ 0.848 µM).
In the case of `CCn1cc(C(=O)O)c(=O)c2cc(F)c(N3CCN(Cn4nc(-c5cccnc5)oc4=S)CC3)cc21`, the MIC in assay [1], in [2] and in assay [3] was at most 0.125 µg/mL in each case.
For `O=C(CN1CCN(c2cc3c(cc2F)c(=O)c(C(=O)O)cn3C2CC2)CC1)Nc1nnc(-c2ccc(Cl)cc2)s1`, the MIC in assay [15] worked out at 1.12 µg/mL (≈ 1.92 µM); in assay [16], 9.11 µg/mL (≈ 15.6 µM); in assay [17], 1.12 µg/mL (≈ 1.92 µM); in [18], 1.12 µg/mL (≈ 1.92 µM). The Ratio in assay [19] and in assay [20] was 4.6 in each case.
Regarding `CC1(C)S[C@@H]2[C@H](NC(=O)[C@H](N)c3ccccc3)C(=O)N2[C@H]1C(=O)O` [AMPICILLIN], the MIC in assay [13] and in [14] was 0.5 µg/mL (≈ 1.43 µM) in each case.
`COc1c(N2CCNC(C)C2)c(F)cc2c(=O)c(C(=O)O)cn(C3CC3)c12` (centres undefined) [GATIFLOXACIN]: the MIC was 0.25 µg/mL (≈ 0.666 µM) in assay [13]; 0.25 µg/mL (≈ 0.666 µM) in assay [14]; 0.72 µg/mL (≈ 1.92 µM) in [1]; 0.66 µg/mL (≈ 1.76 µM) in assay [2]; 0.47 µg/mL (≈ 1.25 µM) in assay [8]; 0.66 µg/mL (≈ 1.76 µM) in [9].
As to `C[C@H]1COc2c(N3CCN(C)CC3)c(F)cc3c(=O)c(C(=O)O)cn1c23` [LEVOFLOXACIN ANHYDROUS], the minimum inhibitory concentration (MIC) in assay [1] came out at 0.66 µg/mL (≈ 1.83 µM); in assay [2] it was 0.47 µg/mL (≈ 1.3 µM); in [8] it was 0.72 µg/mL (≈ 1.99 µM); in assay [9] it was 0.47 µg/mL (≈ 1.3 µM).
Turning to `CCn1cc(C(=O)O)c(=O)c2cnc(N3CCNCC3)nc21` [PIPEMIDIC ACID], the minimal inhibitory concentration (MIC) in assay [21] and in [22] was 19.5 µg/mL (≈ 64.3 µM) throughout.

For the origin of these results see ChEMBL document CHEMBL5360532, “Current scenario of quinolone hybrids with potential antibacterial activity against ESKAPE pathogens” (Eur J Med Chem, 2023).
